Measurements: the NIST ThermoML archive (doi:10.1021/je900199j)
Several values for one entry are separate records, joined by “and”; a condition that tells them apart may be missing. Equal values may be shown once. Numbers after ± are expanded uncertainties.

Assay: mn = molality of the nth substance listed, in mol/kg
Conditions: 101 kPa, Liquid; for speed of sound: Frequency=4 MHz

SMILES: [Cl-].[K+] [potassium chloride] + O
- speed of sound (298.15 K, m1 = 2.13): 1592.8 ± 4.2 m/s
- mass density (298.15 K, m1 = 2.13): 1087.7 ± 1.2 kg/m3
- speed of sound (303.15 K, m1 = 2.13): 1600.4 ± 4.2 m/s
- mass density (303.15 K, m1 = 2.13): 1085.7 ± 0.8 kg/m3
- speed of sound (308.15 K, m1 = 2.13): 1608 ± 4.2 m/s
- mass density (308.15 K, m1 = 2.13): 1083.6 ± 0.8 kg/m3
- speed of sound (313.15 K, m1 = 2.13): 1614 ± 4.2 m/s
- mass density (313.15 K, m1 = 2.13): 1081.3 ± 0.9 kg/m3
- speed of sound (318.15 K, m1 = 2.13): 1617.2 ± 4.2 m/s
- mass density (318.15 K, m1 = 2.13): 1078.8 ± 0.9 kg/m3
- speed of sound (323.15 K, m1 = 2.13): 1622 ± 4.3 m/s
- mass density (323.15 K, m1 = 2.13): 1076.1 ± 1.3 kg/m3

SMILES: O=[N+]([O-])[O-].[K+] [potassium nitrate] + O
- speed of sound (298.15 K, m1 = 2.19): 1558.8 ± 4.2 m/s
- mass density (298.15 K, m1 = 2.19): 1115 ± 1.2 kg/m3
- speed of sound (303.15 K, m1 = 2.19): 1566.8 ± 4.1 m/s
- mass density (303.15 K, m1 = 2.19): 1112.5 ± 0.9 kg/m3
- speed of sound (308.15 K, m1 = 2.19): 1572.8 ± 4.2 m/s and 1572.6 ± 4.2 m/s
- mass density (308.15 K, m1 = 2.19): 1109.8 ± 0.9 kg/m3
- speed of sound (313.15 K, m1 = 2.19): 1577.6 ± 4.2 m/s
- mass density (313.15 K, m1 = 2.19): 1107 ± 0.9 kg/m3
- speed of sound (318.15 K, m1 = 2.19): 1582 ± 4.2 m/s
- mass density (318.15 K, m1 = 2.19): 1104 ± 1 kg/m3
- speed of sound (323.15 K, m1 = 2.19): 1586.4 ± 4.2 m/s
- mass density (323.15 K, m1 = 2.19): 1100.9 ± 1.3 kg/m3
